“And” between values parts separate entries of the source, which are not always exact repeats. Identical values can stand only once.
Tested on: SW1271 complex spheroids with HUVEC/MSC, growth, % test/control
Test: Anticancer human tumor SW1271 cell line growth inhibition [AhR];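 further: spheroids exposed to agents for 7 days before readout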
Conditions: for viability, T/C: stronger effect = lower value
Text: Multicellular complex tumor spheroid response to aryl hydrocarbon receptor antagonists in combination with a variety of drugs and investigational agents in selected tumor cell lines
The current study was undertaken to assess response to aryl hydrocarbon receptor antagonists in combination with standard-of-care drugs and investigational agents in solid tumor complex spheroid models. Complex spheroids include a stromal component modeled by human endothelial cells (HUVEC) and fibroblasts modeled by human mesenchymal stem cells (MSCs). The concentration ranges selected for each drug and investigational agent were based upon clinically achievable concentrations if the clinical Cmax of the agent was known.
Compounds. The drugs and investigational agents: BAY 2416964 (NSC825713), GNF351 (NSC835774), CH-223191 (NSC835775), CPI-455 (NSC825282), aza-TdCyd (NSC777586), decitabine (NSC127716), belinostat (NSC758774), entinostat (NSC756642), pevonedistat (NSC761192), tazemetostat (NSC777109), talazoparib (NSC765396), olaparib (NSC753686), selinexor (NSC780203), nedisertib (M3814, NSC802822), bortezomib (NSC756655), venetoclax (NSC766270), doxorubicin (NSC123127), elimusertib (BAY189344, NSC800525), ceralasertib (AZD6738, NSC777638), TAK-243 (NSC785004), alisertib (NSC759677), etoposide (NSC141540), topotecan (NSC609699), eribulin (NSC707389), gemcitabine (NSC613327), carboplatin (NSC241240), cisplatin (NSC119875), and SN-38 (NSC673596) were obtained from the National Cancer Institute (NCI) Developmental Therapeutics Program Chemical Repository (32). The FDA-approved anticancer drug set is available from the Developmental Therapeutics Program at https://dtp.cancer.gov/organization/dscb/obtaining/available plates.htm. […] The stock solutions were prepared in dimethyl sulfoxide (DMSO, Sigma-Aldrich, St. Louis, MO, cat. D2650), except for the platinum compounds which were prepared in saline (Quality Biological, Gaithersburg, MD, cat. 114-055-101), at 800-fold the tested concentration and stored at -70 degrees C prior to their use. All drugs and investigational agents were tested over a range starting from a high concentration at or near the clinical Cmax and decreasing in half-log increments. If the clinical Cmax for an agent had not been determined, the highest concentration tested was 10 microM (Table 1).
Cell Culture. All cells were maintained in an incubator at 37 degrees C and 5% CO2 with 95% humidity. The PDC lines were cultured according to standard operating procedures established by the NCI PDMR (https://pdmr.cancer.gov). Briefly, all PDCs were thawed and cultured in Matrigel-coated flasks prepared with a working solution of 1X Ham's F-12 nutrient mix, without supplementation (Invitrogen, Waltham, MA, cat. 11765054), 100 U/mL penicillin-streptomycin (Invitrogen, cat. 15140122), and 2.5% Matrigel (Corning Inc., Corning, NY, cat. 354248) for the first three passages. All PDCs were cultured in complete DMEM/F-12 media containing advanced DMEM/F-12 (Invitrogen, cat. 12634028), 4.9% defined fetal bovine serum, heat inactivated (HyClone Laboratories Inc., Logan, UT, cat. SH30070.03HI), 389 ng/mL hydrocortisone (Sigma-Aldrich, cat. H4001), 9.7 ng/mL human EGF recombinant protein (Invitrogen, cat. PHG0313), 23.4 microg/mL adenine (Sigma-Aldrich, cat. A2786), 97.3 U/mL penicillin-streptomycin (Invitrogen, cat. 15140122), 1.9 mM L-glutamine (Invitrogen, cat. 25030081), and 9.7 microM Y-27632 dihydrochloride (Tocris Bioscience, Bristol, United Kingdom, cat. 1254). The PDCs were cultured in complete DMEM/F12 media without 10 microM Y-27632 dihydrochloride for at least two passages prior to the screen. The established cell lines NCI-H1341 and […] were cultured in DMEM/F-12, HEPES (Invitrogen, cat. 11330032), 5% defined fetal bovine serum (HyClone Laboratories Inc., cat. SH30070.03), ITS premix universal culture supplement [insulin (5 microg/mL), transferrin (5 microg/mL), and selenious acid (5 ng/mL)] […]

| SMILES | viability, T/C (compound 0.0316 µM) | viability, T/C (compound 0.1 µM) | viability, T/C (compound 0.316 µM) | viability, T/C (compound 1 µM) | viability, T/C (compound 3.16 µM) | viability, T/C (compound 10 µM) | IC50 (curve of compound) | other results |
| --- | --- | --- | --- | --- | --- | --- | --- | --- |
| COc1ccc([C@@H](O)c2cc(-c3ncnc4cc(N5CCOCC5)ccc34)c(F)cc2Cl)nn1 | 80.5% and 93.2% and 107% | 96.4% and 73% and 85.2% | 76.1% and 70.2% and 81% | 62.3% and 61.5% and 59.7% | 45.4% and 57% and 39.5% | 25.2% and 27.9% and 28.6% | 2180 nM and 2740 nM and 1890 nM | – |
| COc1cccc2c1C(=O)c1c(O)c3c(c(O)c1C2=O)CC(O)(C(=O)CO)CC3OC1CC(N)C(O)C(C)O1 (configuration not stated) | 66.6% and 50.3% and 72.6% | 69.8% and 46.8% and 56.1% | 53% and 29.6% and 40.6% | 7.45% and 5.09% and 6.04% | 4.63% and 2.92% and 2.03% | 13.6% and 3.38% and 3.85% | – | – |
| Cc1ccccc1N=Nc1ccc(NC(=O)c2ccnn2C)c(C)c1 | – | – | – | – | – | – | – | IC50 (compound alone, run of 08/22/2022): > 10000 nM |
| Cc1cncc(-c2nc(NCCc3c[nH]c4ccccc34)c3ncn(C(C)C)c3n2)c1 | – | – | – | – | – | 46.3% [middle of 20 runs] | – | – |
| Cn1ncnc1C1c2n[nH]c(=O)c3cc(F)cc(c23)NC1c1ccc(F)cc1 (configuration not stated) | 89.5% and 112% and 96.6% | 88.7% and 93.8% and 83.6% | – | – | – | – | > 100 nM | viability, T/C (compound 0.000316 µM): 114% and 102% and 95.2%; viability, T/C (compound 0.001 µM): 97.2% and 109% and 100%; viability, T/C (compound 0.00316 µM): 101% and 95.9% and 94%; viability, T/C (compound 0.01 µM): 106% and 105% (2×) |
| NS(=O)(=O)OCC1CC(n2ccc3c(NC4CCc5ccccc54)ncnc32)CC1O (configuration not stated) | 151% and 137% and 133% | 143% and 152% and 145% | 120% and 101% and 89.3% | 99.3% and 103% and 71.7% | 88.6% and 93.6% and 57.3% | 77% and 86.9% and 55.2% | > 10000 nM and 8700 nM | – |
| Nc1ccccc1NC(=O)c1ccc(CNC(=O)OCc2cccnc2)cc1 | 107% and 114% and 87.5% | 112% and 89.2% and 77% | 72.5% and 61% and 59.9% | 62.2% and 60.4% and 45.5% | 37.6% and 38.3% and 33.3% | 10.4% and 14.2% and 7.86% | 1620 nM and 1180 nM and 765 nM | – |
| Nc1ccn(C2OC(CO)C(O)C2(F)F)c(=O)n1 (configuration not stated) | 75.2% and 49% and 67.7% | 65.6% and 48.5% and 66.2% | 69.9% and 41.9% and 48.2% | 57.6% and 44.3% and 50% | 57.8% and 50.9% and 56.9% | 64.4% and 44.9% and 47.5% | – | – |
| Nc1ncn(C2CC(O)C(CO)O2)c(=O)n1 (configuration not stated) | 95.4% and 81.6% and 69.9% | 86.8% and 94.5% and 63.9% | 93.2% and 73.9% and 68.4% | 101% and 80.6% and 66.2% | – | – | > 1000 nM | viability, T/C (compound 0.00316 µM): 97.1% and 72.6% and 93.8%; viability, T/C (compound 0.01 µM): 107% and 124% and 97% |
| Nc1ncn(C2CC(O)C(CO)S2)c(=O)n1 (configuration not stated) | – | – | – | – | – | – | > 300 nM | viability, T/C (compound 0.000949 µM): 87.6% and 102% and 94.9%; viability, T/C (compound 0.003 µM): 97.8% and 95.9% and 114%; viability, T/C (compound 0.00949 µM): 85.7% and 82.9% and 113%; viability, T/C (compound 0.03 µM): 94.8% and 90.3% and 103%; viability, T/C (compound 0.0949 µM): 89.2% and 85.8% and 94.6%; viability, T/C (compound 0.3 µM): 78.8% and 82.7% and 78.6% |
| O=C(C=Cc1cccc(S(=O)(=O)Nc2ccccc2)c1)NO | 103% and 83.5% and 85.7% | 93.6% and 105% and 72.1% | 84.1% and 62.7% and 54.9% | 62.3% and 55.8% and 46.2% | 31.1% and 22.6% and 23.3% | 13.2% and 16.8% and 9.23% | 1550 nM and 963 nM and 556 nM | – |
| O=C(C=Cn1cnc(-c2cc(C(F)(F)F)cc(C(F)(F)F)c2)n1)NNc1cnccn1 | – | – | – | – | – | – | 1660 nM and 1430 nM and 701 nM | viability, T/C (compound 0.00949 µM): 95.2% and 89.5% and 105%; viability, T/C (compound 0.03 µM): 92.7% and 78.8% and 61.8%; viability, T/C (compound 0.0949 µM): 79.7% and 88.9% and 77.8%; viability, T/C (compound 0.3 µM): 78.9% and 65.1% and 64.9%; viability, T/C (compound 0.949 µM): 55% and 57% and 44.6%; viability, T/C (compound 3 µM): 42.1% and 41.2% and 35.7% |
| O=C(c1cc(Cc2n[nH]c(=O)c3ccccc23)ccc1F)N1CCN(C(=O)C2CC2)CC1 | 93% and 99.8% (2×) | 101% and 109% and 92.5% | 90.8% and 96.5% and 82.1% | 84.3% and 88.2% and 89.1% | 80.5% and 98.7% and 74.1% | 66% and 77.4% and 76.5% | > 10000 nM | – |
